Consider eight molecules from patent US6426317B1, “Stable, high available halogen 1,3,5-triazine-2,4,6-trione compositions having rapid dissolution rates” (Great Lakes Chemical Corporation, priority 1999, dated 2002).

Data set [1] can be described thus: Total chlorine in synthetic pool water exposed to environmental UV light (Example 7). The class given is physicochemical. Set-up: unit not given here.
For data set [2] the following is noted: NFPA scale from 1 to 4, NFPA 430, 1995 edition; cited from earlier work.
The conditions of data set [3]: in water at 20° C.; cited from earlier work.
Data set [4] is described as follows: Off-gassing of roll-compacted granules contaminated with water (Examples 4-6). In kind it is physicochemical. To be noted: Table 9; Example 6.
The conditions of data set [5]: for effect of additive on off-gassing of trichloroisocyanuric acid: Example 1, 25.5% additive.
Data set [6] is described as follows: Solubility (15-minute dissolution) of granules in balanced swimming pool water, thiosulfate titration. The note with it: Table 9; Example 6.
Data set [7] can be described thus: Off-gassing of granular formula compositions (Example 3). The class given is physicochemical. The note with it: Example 3, granules.
Description: The formula compositions produced in this example were tested for their stability and in some cases for their solubility. The components used included a dissolution aid: disodium cyanurate, and a disintegration agent: microcrystalline cellulose, Lattice® NT (FMC).
Again, blended powder samples were prepared for each formula composition. A 20-gram sample of each test formula composition was placed in a 2.0 inch diameter dye-punch set and compressed under 22 tons of force for 60 minutes using a Carver press. The compressed wafer was reduced to granules using a spatula and a mortar and pestle set. Properly sized granules were collected using a standard sieve shaker.
Approximately one gram of each granular formula composition sample was placed in an eight-ounce sample container. […] The containers were vapor sealed and carefully placed in an approximately 50° C. oven for 24 hours. After the sample set was removed from the oven and cooled, a one-ml aliquot from each sample was placed in 50 ml of deionized water and titrated with 0.100 N sodium thiosulfate. The volume of thiosulfate reagent used to titrate the available halogen in the KI solution was recorded.

Take `[Ca+2].[O-]Cl.[O-]Cl` [Calcium hypochlorite, calcium hypochlorite]: the “Total Cl” value in data set [1] (sampling time 0:00 (Hr:Min), 10 ppm available halogen added, outdoor UV light) was 0.02; in data set [1] (sampling time 0:05) it was 6.8; in data set [1] (sampling time 0:10), 6.8; in data set [1] (sampling time 0:15) it was 7.2; in data set [1] (sampling time 0:20), 6.8; in data set [1] (sampling time 0:25), 6.0. Besides, the “Total Cl” value amounted to 5.1 in data set [1] (sampling time 0:30); 5.0 in data set [1] (sampling time 0:40); 3.3 in data set [1] (sampling time 0:50); 3.5 in data set [1] (sampling time 1:00); 2.2 in data set [1] (sampling time 1:15); 2.6 in data set [1] (sampling time 1:30). The “Oxidizer Rating” value in data set [2] is recorded as 3. Moreover, the Solubility entry in data set [3] is “≅22^3 g/100g (%)”.

Take `[Li+].[O-]Cl` [Lithium hypochlorite]: the “Oxidizer Rating” value in data set [2] is 2. The Solubility result in data set [3] is given as “≅43^3 g/100g (%)”.

As for `O=c1[n-]c(=O)n(Cl)c(=O)n1Cl.[K+]` [Potassium dichloroisocyanurate anhydrous, potassium dichloroisocyanurate], in data set [2], the “Oxidizer Rating” value is recorded as 3. Besides, in data set [3], the Solubility is recorded as 5.0^4 g/100g (%).

For `O=c1nc([O-])n(Cl)c(=O)n1Cl.[Na+]` [Sodium dichloroisocyanurate anhydrous, sodium dichloroisocyanurate], the “Oxidizer Rating” value in data set [2] is 3. The Solubility in data set [3] is 12.5^4 g/100g (%).

`O=c1n(Cl)c(=O)n(Cl)c(=O)n1Cl` [Trichloroisocyanuric acid, 1,3,5-trichloro-1,3,5-triazine-2,4,6-trione]: in data set [2], the “Oxidizer Rating” value is on record as 1. In addition, the “Off-Gassing Titrant Volume” value in data set [4] amounted to 2.00 mL. Besides, in data set [5] (Table 1, compressed powder wafer, 5 ml 15% KI, approximately 50° C., 24 hours, 0.100 N sodium thiosulfate), the “Titrant Volume (off-gassing)” value stood at 2.65 mL. Moreover, the “Solubility Titrant Volume” value in data set [6] was found to be 1.90 mL. Further, in data set [3], the Solubility is reported as 1.2^4 g/100g (%).

With `OB(O)O` [boric acid], in data set [5], the “effect of additive on off-gassing of trichloroisocyanuric acid” value is given as “do not significantly affect the off-gassing profile of trichloroisocyanuric acid”.

As for `O=c1nc([O-])nc([O-])[nH]1.[Na+].[Na+]` [disodium cyanurate, disodium salt of 1,3,5-triazine-2,4,6-trione], the “effect of additive on off-gassing” value in data set [7] is “do not significantly affect the off-gassing profile”.

Take `O=C([O-])O.[Na+]` [sodium bicarbonate]: in data set [5], the “effect of additive on off-gassing of trichloroisocyanuric acid” value is recorded as “increase gassing significantly”.
